Blank lines part the entries; values can stand above or below the compound they belong to. Calls of active or inactive are those of the source. The calls are words filed in the database; no cut-off is given here.
Tests used:
Bel-7402 [1] = assay: Antitumor activity against human Bel-7402 cells xenografted in BAlb/c (nu/nu) mouse assessed as inhibition rate at 30 mg/kg, po daily measured after 14 days; type: functional; conditions: Bel-7402, 336 h, time 14 day
Bel-7402 [2] = assay: Antitumor activity against human Bel-7402 cells xenografted in Balb/c (nu/nu) mouse assessed as relative tumor volume at 30 mg/kg, po qd after 14 days (Rvb=25.69+/-2.73); type: functional; conditions: time 14 day
Bel-7402 [3] = assay: Antitumor activity against human Bel-7402 cells xenografted in Balb/c (nu/nu) mouse assessed as tumor weight at 30 mg/kg, po qd after 14 days (Rvb=0.65 +/- 0.06 g); type: functional; conditions: time 14 day
Bel-7402 [4] = assay: Antitumor activity against human Bel-7402 cells xenografted in BAlb/c (nu/nu) mouse assessed as T/C ratio at 30 mg/kg, po daily measured after 14 days; type: functional; conditions: time 14 day
Bel-7402 [5] = assay: Induction of apoptosis in human Bel-7402 cells xenografted in Balb/c (nu/nu) mouse assessed as decrease in cell proliferation at 20 to 40 mg/kg, po daily after 14 days by Ki-67 staining based immunohistochemical analysis; type: functional, organism-based; conditions: dose 20-40 mg/kg, time 14.0 day
Bel-7402 [6] = assay: Induction of apoptosis in human Bel-7402 cells xenografted in Balb/c (nu/nu) mouse assessed as increase in apoptotic cells at 20 to 40 mg/kg, po daily after 14 days by DAPI staining based assay; type: functional, organism-based; conditions: dose 20-40 mg/kg, time 14.0 day
[7] = molecular target: Phosphatidylinositol 4,5-bisphosphate 3-kinase catalytic subunit alpha isoform (Homo sapiens, UniProt P42336); assay: Inhibition of PI3Kalpha (unknown origin) using PIP2 as substrate incubated for 1 hr in presence of ATP by ADP-Glo assay
Bel-7402 [8] = assay: Induction of apoptosis in human Bel-7402 cells xenografted in Balb/c (nu/nu) mouse assessed as increase in expression of cleaved caspase-3 at 20 to 40 mg/kg, po daily after 14 days by western blot analysis; type: functional, organism-based; conditions: dose 20-40 mg/kg, time 14.0 day
HepG2 [9] = assay: Induction of apoptosis in human HepG2 cells assessed as decrease in EGf dependent Akt phosphorylation at serine 473 residue at 0.3 to 10 uM measured after 24 hrs by western blotting analysis; type: functional, cell-based; conditions: dose 0.3-10 µM, DDE = dose-dependent effect
Bel-7402 [10] = assay: Induction of apoptosis in human Bel-7402 cells xenografted in Balb/c (nu/nu) mouse assessed as increase in expression of cleaved PARP at 20 to 40 mg/kg, po daily after 14 days by western blot analysis; type: functional, organism-based; conditions: dose 20-40 mg/kg, time 14.0 day
Bel-7402 [11] = assay: Antiproliferative activity against human Bel-7402 cells assessed as inhibition of cell growth incubated for 72 hrs by SRB assay; type: functional, cell-based; conditions: Bel-7402, 72 h
Bel-7402 [12] = assay: Induction of apoptosis in human Bel-7402 cells assessed as decrease in EGf dependent Akt phosphorylation at serine 473 residue at 0.3 to 10 uM measured after 24 hrs by western blotting analysis; type: functional, cell-based; conditions: dose 0.3-10 µM, DDE = dose-dependent effect
HepG2 [13] = assay: Induction of apoptosis in human HepG2 cells assessed as increase in expression of cleaved PARP at 1.5625 to 50 uM incubated for 24 hrs by Western blotting analysis; type: functional, cell-based; conditions: dose 1.5625-50 µM, DDE = dose-dependent effect
Bel-7402 [14] = assay: Induction of apoptosis in human Bel-7402 cells assessed as increase in apoptotic cells at 12.5 to 50 uM for 24 hrs by TUNEL staining method; type: functional, cell-based; conditions: dose 12.5-50 µM
Hep 3B2 [15] = assay: Antiproliferative activity against human Hep3B cells assessed as inhibition of cell growth incubated for 72 hrs by SRB assay; type: functional, cell-based
HepG2 [16] = assay: cells; conditions: Homo sapiens, HepG2, 72 h
Description: Antiproliferative activity against human HepG2 cells assessed as inhibition of cell growth incubated for 72 hrs by SRB assay

Bel-7402 [17] = assay: Induction of apoptosis in human Bel-7402 cells assessed as increase in expression of cleaved PARP at 1.5625 to 50 uM incubated for 24 hrs by Western blotting analysis; type: functional, cell-based; conditions: dose 1.5625-50 µM, DDE = dose-dependent effect
[18] = molecular target: Phosphatidylinositol 4,5-bisphosphate 3-kinase catalytic subunit beta isoform (Homo sapiens, UniProt P42338); assay: Inhibition of PI3Kbeta (unknown origin) using PIP2 as substrate incubated for 1 hr in presence of ATP by ADP-Glo assay
Bel-7402 [19] = assay: Induction of apoptosis in human Bel-7402 cells assessed as increase in expression of cleaved caspase-3 at 1.5625 to 50 uM incubated for 24 hrs by Western blotting analysis; type: functional, cell-based; conditions: dose 1.5625-50 µM, DDE = dose-dependent effect
HepG2 [20] = assay: Induction of apoptosis in human HepG2 cells assessed as increase in expression of cleaved caspase-3 at 1.5625 to 50 uM incubated for 24 hrs by Western blotting analysis; type: functional, cell-based; conditions: dose 1.5625-50 µM, DDE = dose-dependent effect
[21] = molecular target: Phosphatidylinositol 4,5-bisphosphate 3-kinase catalytic subunit gamma isoform (Homo sapiens, UniProt P48736); assay: Inhibition of PI3Kgamma (unknown origin) using PIP2 as substrate incubated for 1 hr in presence of ATP by ADP-Glo assay
Bel-7402 [22] = assay: Induction of apoptosis in human Bel-7402 cells xenografted in Balb/c (nu/nu) mouse assessed as decrease in phosphorylation of Akt at serine 473 residue at 20 to 40 mg/kg, po daily after 14 days by western blot analysis; type: functional, organism-based; conditions: dose 20-40 mg/kg, time 14.0 day
HepG2 [23] = assay: Induction of apoptosis in human HepG2 cells assessed as decrease in EGf dependent Akt phosphorylation at threonine 308 residue at 0.3 to 10 uM measured after 24 hrs by western blotting analysis; type: functional, cell-based; conditions: dose 0.3-10 µM, DDE = dose-dependent effect
Bel-7402 [24] = assay: Induction of apoptosis in human Bel-7402 cells assessed as decrease in EGf dependent Akt phosphorylation at threonine 308 residue at 0.3 to 10 uM measured after 24 hrs by western blotting analysis; type: functional, cell-based; conditions: dose 0.3-10 µM, DDE = dose-dependent effect
[25] = Toxicity in Balb/c (nu/nu) mouse xenografted with human Bel-7402 cells assessed as change in body weight at 20 to 40 mg/kg, po daily after 14 days; type: organism-based; conditions: in vivo, 336 h, dose 20-40 mg/kg, time 14 day
Bel-7402 [26] = assay: Induction of apoptosis in human Bel-7402 cells assessed as increase in apoptotic cells at 50 uM for 24 hrs by TUNEL staining method; type: functional, cell-based
Hep 3B2 [27] = assay: cells; conditions: Homo sapiens, Hep3B, 72 h, read-out: INH
HepG2 [28] = assay: cells; conditions: Homo sapiens, HepG2, 72 h, read-out: INH
Bel-7402 [29] = assay: animal or person; conditions: Mus musculus, Bel-7402, po, 336 h, read-out: INH
Bel-7402 [30] = assay: cells; conditions: Homo sapiens, Bel-7402, 72 h, read-out: INH

Phosphatidylinositol 4,5-bisphosphate 3-kinase catalytic subunit beta isoform, sequence (P42338 whole entry, canonical isoform): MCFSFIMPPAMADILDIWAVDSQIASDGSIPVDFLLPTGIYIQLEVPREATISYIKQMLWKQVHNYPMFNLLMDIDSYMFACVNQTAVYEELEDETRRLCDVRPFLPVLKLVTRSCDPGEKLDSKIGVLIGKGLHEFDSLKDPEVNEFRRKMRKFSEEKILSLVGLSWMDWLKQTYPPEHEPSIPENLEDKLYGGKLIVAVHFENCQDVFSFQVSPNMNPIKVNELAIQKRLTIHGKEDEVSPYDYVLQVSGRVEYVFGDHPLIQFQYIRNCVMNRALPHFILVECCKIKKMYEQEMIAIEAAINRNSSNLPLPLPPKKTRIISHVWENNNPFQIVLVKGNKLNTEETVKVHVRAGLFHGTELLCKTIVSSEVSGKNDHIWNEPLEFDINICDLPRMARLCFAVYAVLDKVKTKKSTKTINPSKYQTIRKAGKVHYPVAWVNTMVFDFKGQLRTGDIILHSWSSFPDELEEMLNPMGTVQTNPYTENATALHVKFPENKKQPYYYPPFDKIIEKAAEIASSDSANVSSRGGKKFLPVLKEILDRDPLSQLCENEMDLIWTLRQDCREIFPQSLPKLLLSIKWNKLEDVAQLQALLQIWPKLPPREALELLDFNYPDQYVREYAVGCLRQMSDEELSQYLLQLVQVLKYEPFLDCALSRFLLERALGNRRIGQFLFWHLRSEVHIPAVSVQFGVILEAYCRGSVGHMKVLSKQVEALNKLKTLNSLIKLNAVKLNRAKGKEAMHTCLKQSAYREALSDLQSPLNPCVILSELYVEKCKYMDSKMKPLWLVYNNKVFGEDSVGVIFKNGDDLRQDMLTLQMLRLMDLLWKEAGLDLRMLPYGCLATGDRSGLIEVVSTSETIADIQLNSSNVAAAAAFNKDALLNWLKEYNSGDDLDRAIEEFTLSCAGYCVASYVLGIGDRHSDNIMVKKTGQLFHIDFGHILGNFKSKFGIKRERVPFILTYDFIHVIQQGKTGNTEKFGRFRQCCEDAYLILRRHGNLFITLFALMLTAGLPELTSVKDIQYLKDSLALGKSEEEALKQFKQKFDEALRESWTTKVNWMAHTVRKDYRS
Phosphatidylinositol 4,5-bisphosphate 3-kinase catalytic subunit gamma isoform, sequence (P48736 whole entry, canonical isoform): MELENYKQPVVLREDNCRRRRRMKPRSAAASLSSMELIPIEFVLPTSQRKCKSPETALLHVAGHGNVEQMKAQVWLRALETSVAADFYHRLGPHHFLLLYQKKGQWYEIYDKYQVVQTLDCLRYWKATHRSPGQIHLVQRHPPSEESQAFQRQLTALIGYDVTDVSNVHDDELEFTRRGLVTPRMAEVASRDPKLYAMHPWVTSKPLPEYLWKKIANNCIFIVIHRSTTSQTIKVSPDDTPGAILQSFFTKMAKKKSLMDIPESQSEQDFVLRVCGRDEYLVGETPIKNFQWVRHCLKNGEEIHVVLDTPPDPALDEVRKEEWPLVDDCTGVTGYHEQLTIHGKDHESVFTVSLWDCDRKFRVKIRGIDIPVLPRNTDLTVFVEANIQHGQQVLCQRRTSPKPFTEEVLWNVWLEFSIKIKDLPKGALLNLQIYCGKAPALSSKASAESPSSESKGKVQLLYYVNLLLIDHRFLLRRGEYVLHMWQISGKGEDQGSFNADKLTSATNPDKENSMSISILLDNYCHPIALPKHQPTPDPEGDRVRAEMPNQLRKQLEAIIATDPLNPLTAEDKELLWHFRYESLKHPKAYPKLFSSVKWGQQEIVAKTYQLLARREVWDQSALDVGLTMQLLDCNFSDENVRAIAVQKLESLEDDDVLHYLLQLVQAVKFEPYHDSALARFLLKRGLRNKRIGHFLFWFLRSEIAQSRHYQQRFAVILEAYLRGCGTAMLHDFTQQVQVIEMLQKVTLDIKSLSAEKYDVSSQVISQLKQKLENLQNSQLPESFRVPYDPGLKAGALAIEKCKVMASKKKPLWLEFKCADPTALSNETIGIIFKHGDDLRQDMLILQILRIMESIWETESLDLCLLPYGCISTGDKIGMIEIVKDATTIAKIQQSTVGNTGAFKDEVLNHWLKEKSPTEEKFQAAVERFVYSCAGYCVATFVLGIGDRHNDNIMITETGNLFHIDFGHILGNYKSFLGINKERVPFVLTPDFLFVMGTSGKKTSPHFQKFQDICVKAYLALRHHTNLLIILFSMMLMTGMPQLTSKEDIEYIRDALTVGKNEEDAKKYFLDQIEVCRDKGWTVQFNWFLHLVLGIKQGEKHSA
Phosphatidylinositol 4,5-bisphosphate 3-kinase catalytic subunit alpha isoform, sequence (P42336 whole entry, canonical isoform): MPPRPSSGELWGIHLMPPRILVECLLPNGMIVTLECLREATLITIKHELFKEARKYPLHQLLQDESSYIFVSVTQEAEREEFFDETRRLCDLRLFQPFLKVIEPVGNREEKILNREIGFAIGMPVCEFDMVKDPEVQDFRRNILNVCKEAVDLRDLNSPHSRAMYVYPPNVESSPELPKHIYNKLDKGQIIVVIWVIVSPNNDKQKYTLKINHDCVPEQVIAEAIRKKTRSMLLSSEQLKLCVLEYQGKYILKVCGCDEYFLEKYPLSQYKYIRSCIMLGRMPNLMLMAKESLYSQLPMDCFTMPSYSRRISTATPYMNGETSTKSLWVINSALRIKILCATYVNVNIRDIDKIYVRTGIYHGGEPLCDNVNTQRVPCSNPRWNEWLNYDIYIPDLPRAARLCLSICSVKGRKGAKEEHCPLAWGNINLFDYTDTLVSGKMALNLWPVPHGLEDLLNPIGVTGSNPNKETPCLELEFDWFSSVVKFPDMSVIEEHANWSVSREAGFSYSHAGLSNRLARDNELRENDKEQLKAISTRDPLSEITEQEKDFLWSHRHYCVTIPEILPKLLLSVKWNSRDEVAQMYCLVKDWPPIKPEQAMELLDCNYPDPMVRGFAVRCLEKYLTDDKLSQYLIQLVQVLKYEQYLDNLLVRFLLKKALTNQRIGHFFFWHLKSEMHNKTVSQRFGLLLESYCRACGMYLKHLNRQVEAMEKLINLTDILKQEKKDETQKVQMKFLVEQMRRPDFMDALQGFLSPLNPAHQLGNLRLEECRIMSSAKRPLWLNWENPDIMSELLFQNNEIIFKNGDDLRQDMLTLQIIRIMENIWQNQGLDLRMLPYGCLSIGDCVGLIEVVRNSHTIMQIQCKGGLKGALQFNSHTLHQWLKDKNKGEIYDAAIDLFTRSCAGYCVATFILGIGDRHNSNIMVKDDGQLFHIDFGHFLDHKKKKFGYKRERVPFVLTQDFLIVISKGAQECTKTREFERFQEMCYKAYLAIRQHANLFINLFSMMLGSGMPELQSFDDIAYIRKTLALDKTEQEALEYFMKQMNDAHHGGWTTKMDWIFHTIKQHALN

SMILES: CNC(=O)c1cc(Oc2ccc(NC(=O)Nc3ccc(Cl)c(C(F)(F)F)c3)cc2)ccn1 [SORAFENIB]
inhibition in vivo at 30 mg/kg (Bel-7402 [1]): 51.3%
Activity (Bel-7402 [2]): 11.6
Activity (Bel-7402 [3]): 0.32 g
T/C (Bel-7402 [4]): 45.13%

IC50 [7]: > 1 µM
IC50 (Bel-7402 [11]): 1.36 µM
IC50 (HepG2 [16]): 0.53 µM
IC50 [18]: 0.041 µM
IC50 [21]: 0.275 µM
SMILES: C[C@H](Nc1nc(N)nc(N)c1C#N)c1nn(-c2cccnc2)c2cc(Cl)ccc12
Activity (Bel-7402 [5]): Active
Activity (Bel-7402 [6]): Active
Activity (Bel-7402 [8]): Active
Activity (HepG2 [9]): Dde
Activity (Bel-7402 [10]): Active
Activity (Bel-7402 [12]): Dde
Activity (HepG2 [13]): Dde
Activity (Bel-7402 [14]): Active
IC50 (Hep 3B2 [15]): 1.09 µM
Activity (Bel-7402 [17]): Dde
Activity (Bel-7402 [19]): Dde
Activity (HepG2 [20]): Dde
Activity (Bel-7402 [22]): Active
Activity (HepG2 [23]): Dde
Activity (Bel-7402 [24]): Dde
Activity [25]: Non-Toxic

IC50 (Bel-7402 [11]): 66.2 µM
IC50 (HepG2 [16]): 89.5 µM
SMILES: CC[C@H](Nc1ncnc2[nH]cnc12)c1nc2cccc(F)c2c(=O)n1-c1ccccc1 [IDELALISIB]
Activity (Bel-7402 [26]): Active
inhibition at 10 µM (Hep 3B2 [27]): 21%
IC50 (Hep 3B2 [15]): 77.5 µM
inhibition at 10 µM (HepG2 [28]): 20%
inhibition in vivo at 40 mg/kg (Bel-7402 [29]): 44.6%
inhibition at 10 µM (Bel-7402 [30]): 9%

Reference: ChEMBL document CHEMBL5154755, “Discovery of Novel Indazoles as Potent and Selective PI3Kδ Inhibitors with High Efficacy for Treatment of Hepatocellular Carcinoma” (J Med Chem, 2022)
